Results as given in ChEMBL document CHEMBL1128935, “Synthesis and antibacterial, activity of 4-ureido trinems” (1996).
Values after ≈ are worked out from the molar mass of the structure shown.

How the values were obtained:
Type in all cases: functional
Bacteroides fragilis = test: In vitro antibacterial activity against Bacteroides fragilis 2017.
Pseudomonas aeruginosa [1] = test: In vitro antibacterial activity against Pseudomonas aeruginosa 2032 WT.
Streptococcus pneumoniae = test: In vitro antibacterial activity against Streptococcus pneumoniae 3512.
Escherichia coli [2] = test: In vitro antibacterial activity against Escherichia coli 1919 PM.
Pseudomonas aeruginosa [3] = test: In vitro antibacterial activity against Pseudomonas aeruginosa P. aeruginosa 1911.
Escherichia coli [4] = test: In vitro antibacterial activity against Escherichia coli 1850 WT.
Clostridium perfringens = test: In vitro antibacterial activity against Clostridium perfringens 615.
Staphylococcus aureus = test: In vitro antibacterial activity against Staphylococcus aureus 853.

C[C@@H](O)[C@H]1C(=O)N2C(C(=O)[O-])=C3[C@H](CCC[C@@H]3N(C)C(N)=O)[C@H]12.[Na+]
MIC (Bacteroides fragilis): < 0.12 µg/mL | MIC (Pseudomonas aeruginosa [1]): 1 µg/mL | MIC (Streptococcus pneumoniae): < 0.12 µg/mL | MIC (Escherichia coli [2]): < 0.12 µg/mL | MIC (Pseudomonas aeruginosa [3]): 8 µg/mL | MIC (Escherichia coli [4]): 0.25 µg/mL | MIC (Clostridium perfringens): < 0.12 µg/mL | MIC (Staphylococcus aureus): < 0.12 µg/mL

CCNC(=O)N(C)[C@H]1CCC[C@H]2C1=C(C(=O)[O-])N1C(=O)[C@H]([C@@H](C)O)[C@@H]21.[Na+]
MIC (Bacteroides fragilis): 0.5 µg/mL | MIC (Pseudomonas aeruginosa [1]): 4 µg/mL | MIC (Streptococcus pneumoniae): < 0.12 µg/mL | MIC (Escherichia coli [2]): 0.25 µg/mL | MIC (Pseudomonas aeruginosa [3]): 16 µg/mL | MIC (Escherichia coli [4]): 2 µg/mL | MIC (Clostridium perfringens): < 0.12 µg/mL | MIC (Staphylococcus aureus): 0.25 µg/mL

C[C@@H](O)[C@H]1C(=O)N2C(C(=O)O)=C(SCCNC=N)C[C@H]12 [IMIPENEM ANHYDROUS]
MIC (Bacteroides fragilis): 0.06 µg/mL (≈ 0.2 µM) | MIC (Pseudomonas aeruginosa [1]): 4 µg/mL (≈ 13.4 µM) | MIC (Streptococcus pneumoniae): < 0.01 µg/mL | MIC (Escherichia coli [2]): 0.5 µg/mL (≈ 1.67 µM) | MIC (Pseudomonas aeruginosa [3]): 4 µg/mL (≈ 13.4 µM) | MIC (Escherichia coli [4]): 0.5 µg/mL (≈ 1.67 µM) | MIC (Clostridium perfringens): 0.03 µg/mL (≈ 0.1 µM) | MIC (Staphylococcus aureus): 0.1 µg/mL (≈ 0.334 µM)

CO[C@H]1CCC[C@H]2C1=C(C(=O)[O-])N1C(=O)[C@H]([C@@H](C)O)[C@@H]21.[Na+] [SANFETRINEM SODIUM]
MIC (Bacteroides fragilis): 0.06 µg/mL | MIC (Pseudomonas aeruginosa [1]): 16 µg/mL | MIC (Streptococcus pneumoniae): < 0.01 µg/mL | MIC (Escherichia coli [2]): 0.5 µg/mL | MIC (Pseudomonas aeruginosa [3]): > 32 µg/mL | MIC (Escherichia coli [4]): 0.5 µg/mL | MIC (Clostridium perfringens): 0.03 µg/mL | MIC (Staphylococcus aureus): 0.25 µg/mL

C[C@@H](O)[C@H]1C(=O)N2C(C(=O)[O-])=C3[C@H](CCC[C@@H]3N(C)C(=O)NC(C)(C)C)[C@H]12.[Na+]
MIC (Bacteroides fragilis): 0.5 µg/mL | MIC (Pseudomonas aeruginosa [1]): 2 µg/mL | MIC (Streptococcus pneumoniae): < 0.12 µg/mL | MIC (Escherichia coli [2]): 0.5 µg/mL | MIC (Pseudomonas aeruginosa [3]): 16 µg/mL | MIC (Escherichia coli [4]): 4 µg/mL | MIC (Clostridium perfringens): < 0.12 µg/mL | MIC (Staphylococcus aureus): 0.5 µg/mL

C[C@@H](O)[C@H]1C(=O)N2C(C(=O)[O-])=C3[C@H](CCC[C@@H]3N(C)C(=O)NCCO)[C@H]12.[Na+]
MIC (Bacteroides fragilis): 0.25 µg/mL | MIC (Pseudomonas aeruginosa [1]): 8 µg/mL | MIC (Streptococcus pneumoniae): < 0.12 µg/mL | MIC (Escherichia coli [2]): < 0.12 µg/mL | MIC (Pseudomonas aeruginosa [3]): 16 µg/mL | MIC (Escherichia coli [4]): 0.5 µg/mL | MIC (Clostridium perfringens): < 0.12 µg/mL | MIC (Staphylococcus aureus): 0.25 µg/mL
